The results in this text go back to PubChem BioAssay (NCI).

Test systems include CAKI-1 renal; NCI/ADR-RES ovarian; MCF7 breast; NCI-H460 lung; HS 578T breast; SF-268 CNS; KM12 colon; MOLT-4 leukemia; 786-0 renal; SN12C renal; MDA-MB-231 breast; PC-3 prostate; SF-295 CNS; SNB-75 CNS; NCI-H226 lung; OVCAR-8 ovarian; HL-60(TB) leukemia; HCC-2998 colon; K-562 leukemia.
Holding throughout (experiment): NCI tumour cell line growth inhibition, 48 h

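Compound exposure: 48 hours, 5 concentrations, 96-well plates. TGI denotes the concentration required for complete inhibition of growth.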 Bounds are passed on as bounds.

`COc1ccc(C[C@H]2COC(=O)[C@@H]2Cc2ccc(Br)cc2)cc1OC`: the TGI was more than 84 µM with CAKI-1 renal; more than 100 µM in the test with NCI/ADR-RES ovarian; more than 65.4 µM in the test on MCF7 breast; more than 100 µM in the test on NCI-H460 lung; more than 90.9 µM in the test with HS 578T breast; more than 31.6 µM in the test with SF-268 CNS. For the same compound, the TGI in the test on KM12 colon is more than 75.2 µM; in the test with MOLT-4 leukemia, 61.8 µM; with 786-0 renal it was more than 100 µM; in the test on SN12C renal, more than 100 µM; in the test with MDA-MB-231 breast, 77.2 µM; in the test with PC-3 prostate, 52.1 µM. Besides, the TGI with SF-295 CNS was more than 74.3 µM; in the test on SNB-75 CNS, 85.1 µM; in the test on NCI-H226 lung, more than 85.4 µM; with OVCAR-8 ovarian, more than 100 µM; in the test with HL-60(TB) leukemia, more than 61.6 µM; in the test on HCC-2998 colon, more than 100 µM. In the test on K-562 leukemia, the TGI is more than 72 µM.
For `COC1(OC)CCN(Cc2ccccc2)C1=O`, the TGI in the test with CAKI-1 renal was 13 µM; in the test on NCI/ADR-RES ovarian it was 55.3 µM; with MCF7 breast, 25.3 µM; with NCI-H460 lung, 41.2 µM; in the test on HS 578T breast it was more than 100 µM; with SF-268 CNS it was more than 52.8 µM. For the same compound, the TGI is 32.2 µM with KM12 colon; more than 100 µM in the test on MOLT-4 leukemia; 15.7 µM with 786-0 renal; 22.1 µM in the test with SN12C renal; 38.8 µM in the test with MDA-MB-231 breast; 27.8 µM in the test with PC-3 prostate. The TGI in the test with SF-295 CNS worked out at 53.9 µM; with SNB-75 CNS, 30.6 µM; with NCI-H226 lung, 38.9 µM; in the test with OVCAR-8 ovarian, 17.9 µM; with HL-60(TB) leukemia, 4.15 µM; with HCC-2998 colon, 34 µM. For the same compound, in the test with K-562 leukemia, the TGI was more than 37.9 µM.
In the case of `O=C1c2ccccc2C(=O)c2c1oc1cc(O)c(Cl)cc21`, the TGI with CAKI-1 renal worked out at 32.5 µM; with NCI/ADR-RES ovarian it was 45.4 µM; in the test on MCF7 breast, 25.2 µM; in the test with NCI-H460 lung, 9.89 µM; in the test with HS 578T breast, 15.5 µM; in the test on SF-268 CNS, 31.9 µM. Also, the TGI was 19.4 µM with KM12 colon; more than 62.5 µM in the test on MOLT-4 leukemia; 20.9 µM in the test with 786-0 renal; 22.5 µM in the test on SN12C renal; 33.9 µM in the test on MDA-MB-231 breast; 29.6 µM in the test with PC-3 prostate. In addition, the TGI with SF-295 CNS was determined as 9.46 µM; in the test with SNB-75 CNS, 10.4 µM; in the test on NCI-H226 lung it was 34.3 µM; with OVCAR-8 ovarian, 23.4 µM; in the test with HL-60(TB) leukemia, 32.9 µM; in the test on HCC-2998 colon, 14.8 µM. This compound also yielded a TGI in the test with K-562 leukemia of 43.9 µM.
Consider `Cc1cc(-c2nc3cc(F)ccc3s2)ccc1N`, for which the TGI with CAKI-1 renal was more than 94 µM; in the test on NCI/ADR-RES ovarian it was more than 100 µM; with MCF7 breast it was 2.72 µM; with NCI-H460 lung it was more than 54.9 µM; in the test on HS 578T breast, more than 82 µM; in the test on SF-268 CNS, more than 90.5 µM. In addition, the TGI is more than 100 µM in the test on KM12 colon; more than 100 µM in the test with MOLT-4 leukemia; more than 79.4 µM in the test on 786-0 renal; more than 100 µM in the test on SN12C renal; more than 73.6 µM in the test with MDA-MB-231 breast; more than 76.2 µM in the test with PC-3 prostate. Besides, the TGI was more than 100 µM with SF-295 CNS; more than 79.1 µM in the test with SNB-75 CNS; more than 93.6 µM with NCI-H226 lung; more than 100 µM in the test on OVCAR-8 ovarian; more than 100 µM with HL-60(TB) leukemia; more than 100 µM in the test on HCC-2998 colon. Also, in the test on K-562 leukemia, the TGI is more than 100 µM.
Take `CC(C)CC(N)C(=O)NC(CNC(CCC(N)=O)C(=O)NC(CC(C)C)C(=O)NC(CC(C)C)C(=O)O)Cc1ccc2ccccc2c1` (centres undefined): the TGI in the test with CAKI-1 renal, in the test with NCI/ADR-RES ovarian, in the test with MCF7 breast, in the test with NCI-H460 lung, in the test with HS 578T breast and with SF-268 CNS was more than 10 µM in each case. Also, the TGI in the test with KM12 colon, with MOLT-4 leukemia, in the test on 786-0 renal, in the test with SN12C renal, with MDA-MB-231 breast and with PC-3 prostate was more than 10 µM each time. The TGI in the test with SF-295 CNS, with SNB-75 CNS, in the test with NCI-H226 lung, in the test with OVCAR-8 ovarian, in the test with HL-60(TB) leukemia and with HCC-2998 colon was more than 10 µM in each case. Also, in the test on K-562 leukemia, the TGI is more than 10 µM.
As for `O=S(=O)(O)c1c(Cl)c(Cl)c(O)c2ncccc12`, the TGI in the test with CAKI-1 renal was found to be 65.4 µM; in the test on NCI/ADR-RES ovarian, 49.7 µM; in the test with MCF7 breast, 21.6 µM; in the test with NCI-H460 lung, 25.5 µM; in the test with HS 578T breast it was 54.4 µM; in the test with SF-268 CNS, 13.8 µM. In addition, the TGI in the test on KM12 colon was 33.2 µM; with MOLT-4 leukemia, 20.1 µM; with 786-0 renal it was 21.1 µM; in the test on SN12C renal it was 40.8 µM; in the test on MDA-MB-231 breast it was more than 93.1 µM; in the test on PC-3 prostate, more than 59.6 µM. Further, the TGI worked out at 33.2 µM in the test on SF-295 CNS; 39.3 µM in the test on SNB-75 CNS; 64.3 µM with NCI-H226 lung; 51.3 µM in the test on OVCAR-8 ovarian; 4.75 µM with HL-60(TB) leukemia; 31.4 µM in the test with HCC-2998 colon. In the test with K-562 leukemia, this compound had a TGI of more than 48.5 µM.
With `CN(C)CCC(=O)[C@@]1(O)CC[C@H]2[C@@H]3CC=C4C[C@@H](O)CC[C@]4(C)[C@H]3CC[C@@]21C`, the TGI in the test with CAKI-1 renal came to 34.6 µM; with NCI/ADR-RES ovarian, 72.1 µM; in the test on MCF7 breast it was 16.8 µM; with NCI-H460 lung, 30.9 µM; with HS 578T breast it was 51.1 µM; with SF-268 CNS, 32.2 µM. Moreover, the TGI in the test on KM12 colon turned out to be 45.3 µM; with MOLT-4 leukemia, 53.1 µM; in the test with 786-0 renal it was 13.6 µM; in the test with SN12C renal it was 32.2 µM; in the test on MDA-MB-231 breast, 32.8 µM; in the test on PC-3 prostate, 26.2 µM. Further, the TGI in the test on SF-295 CNS is more than 73.9 µM; with SNB-75 CNS, 29.5 µM; in the test on NCI-H226 lung, more than 100 µM; with OVCAR-8 ovarian, 40 µM; in the test on HL-60(TB) leukemia it was 37.7 µM; in the test with HCC-2998 colon, 60 µM. In addition, the TGI in the test with K-562 leukemia was determined as 48.9 µM.
In the case of `C=CC(C)(C)NC(C(=O)N1CCC[C@H]1c1nc(-c2nc(C(=O)OCC=C(C)C)c(C)o2)c(C)o1)C(C)C` (some centres undefined), the TGI in the test with CAKI-1 renal was 99.8 µM; in the test on NCI/ADR-RES ovarian, more than 100 µM; in the test with MCF7 breast, more than 82.8 µM; with NCI-H460 lung, more than 100 µM; in the test on HS 578T breast, more than 100 µM; with SF-268 CNS it was more than 100 µM. In addition, the TGI in the test with KM12 colon is more than 90.6 µM; in the test on MOLT-4 leukemia, more than 100 µM; in the test with 786-0 renal, more than 100 µM; in the test with SN12C renal it was more than 72.2 µM; in the test on MDA-MB-231 breast it was more than 100 µM; with PC-3 prostate, more than 100 µM. Besides, the TGI with SF-295 CNS is more than 74.8 µM; in the test with SNB-75 CNS, more than 100 µM; with NCI-H226 lung, more than 87.7 µM; in the test on OVCAR-8 ovarian it was more than 100 µM; in the test on HL-60(TB) leukemia it was 71.6 µM; in the test with HCC-2998 colon it was more than 100 µM. In addition, the TGI with K-562 leukemia is more than 100 µM.
On to `COc1cccc(CCn2c(N)c(-c3cc(Cl)cc(Cl)c3)c3ccc([N+](=O)[O-])cc3c2=O)c1`, for which the TGI was 41.7 µM in the test on CAKI-1 renal; more than 55 µM in the test with NCI/ADR-RES ovarian; 89.2 µM in the test with MCF7 breast; more than 30.8 µM with NCI-H460 lung; more than 38 µM with HS 578T breast; more than 100 µM in the test with SF-268 CNS. Further, the TGI in the test with KM12 colon is more than 100 µM; in the test on MOLT-4 leukemia it was more than 100 µM; in the test with 786-0 renal, more than 100 µM; in the test on SN12C renal it was more than 86.7 µM; in the test with MDA-MB-231 breast, 61.1 µM; in the test with PC-3 prostate, more than 61.9 µM. The TGI in the test on SF-295 CNS is more than 100 µM; in the test with SNB-75 CNS, more than 100 µM; with NCI-H226 lung, more than 53.5 µM; in the test on OVCAR-8 ovarian, more than 100 µM; with HL-60(TB) leukemia, 5.37 µM; in the test with HCC-2998 colon, more than 31.6 µM. In the test on K-562 leukemia, this compound returned a TGI of 4.28 µM.
In the case of `CC/C(Cl)=N\OC(=O)Nc1ccc(F)c(Cl)c1`, the TGI was 9.55 µM in the test with CAKI-1 renal; 42.7 µM in the test with NCI/ADR-RES ovarian; 20.1 µM in the test on MCF7 breast; 34.3 µM in the test on NCI-H460 lung; more than 100 µM in the test with HS 578T breast; 43.4 µM in the test on SF-268 CNS. Moreover, the TGI in the test with KM12 colon is 35 µM; in the test with MOLT-4 leukemia, 2.11 µM; with 786-0 renal it was 18 µM; in the test with SN12C renal, 40.2 µM; with MDA-MB-231 breast, 41.5 µM; in the test on PC-3 prostate, 29.6 µM. Further, the TGI worked out at 33.1 µM in the test on SF-295 CNS; 26.2 µM in the test with SNB-75 CNS; 51.3 µM in the test on NCI-H226 lung; 36.8 µM in the test with OVCAR-8 ovarian; 4.33 µM with HL-60(TB) leukemia; 35.3 µM in the test on HCC-2998 colon. In addition, the TGI with K-562 leukemia is 3.26 µM.
For the compound `CCOC(=O)N1c2ccccc2N(C(=O)OCC)C1CC(=O)/C=C/c1ccccc1`, the TGI in the test with CAKI-1 renal is 12.6 µM; in the test with NCI/ADR-RES ovarian it was 9.77 µM; in the test with MCF7 breast, 13.6 µM; in the test on NCI-H460 lung, 11.1 µM; in the test on HS 578T breast, more than 19.9 µM; in the test with SF-268 CNS, 9.82 µM. Moreover, the TGI with KM12 colon was 9.51 µM; in the test with MOLT-4 leukemia it was 12.4 µM; in the test with 786-0 renal, 10.6 µM; in the test on SN12C renal it was 14.4 µM; in the test on MDA-MB-231 breast, more than 100 µM; in the test with PC-3 prostate, 19.8 µM. Moreover, the TGI amounted to 21.7 µM in the test with SF-295 CNS; 9.92 µM with SNB-75 CNS; 6.04 µM in the test with NCI-H226 lung; 8.63 µM with OVCAR-8 ovarian; 6.94 µM in the test with HL-60(TB) leukemia; 10.6 µM in the test on HCC-2998 colon. Further, in the test with K-562 leukemia, the TGI is more than 30.7 µM.
